Laboratory results taken from patent US6767991B1, “Hepatitis C inhibitor peptides” (priority 1997, dated 2004).
Read-outs that look alike come from different tables or passages of the source. *1 amine or outer side, *2 acyl side, *3 side chain or, on linkers, in order; H or OH if unused. Where a SMILES comes first, the peptide text is derived from it. Where no end group is shown, it is not given here. [ ]: non-standard residue; d: D form. The star is where a group is joined. CH2(1-naphthyl) = c1ccc2c(C*)cccc2c1; Hyp = O=C(O)[C@@H]1C[C@@H](O)CN1; AllylGly = C=CC[C@H](N)C(=O)O; Chg = N[C@H](C(=O)O)C1CCCCC1; Suc = O=C(CCC(=O)[*:2])[*:1]; Tle = CC(C)(C)[C@H](N)C(=O)O; X5 = CC(C)(C)c1ccc(C*)cc1; Nva = CCC[C@H](N)C(=O)O; X1 = c1ccc2cc(C*)ccc2c1; X4 = Brc1cc(Br)cc(C*)c1; Abu = CC[C@H](N)C(=O)O; Ac3c = NC1(C(=O)O)CC1; Boc = CC(C)(C)OC(=O)*; X2 = Brc1cccc(C*)c1; X3 = CC(=O)OCC(=O)*; X6 = Ic1cccc(C*)c1; Bn = c1ccc(C*)cc1

Target: T1, HCV NS3 protease type 1b/NS4A cofactor peptide (Hepatitis C virus genotype 1b, UniProt P26663)
T1 construct: recombinant HCV NS3 protease (amino acid 1027 to 1206) was cloned in the pET11d bacterial expression vector; made in house; host or cells: E. coli BL21(DE3)pLysS
Assay: Recombinant HCV NS3 protease/NS4A cofactor peptide radiometric assay
Assay type: biochemical, HCV genotype 1b
Settings: read-out: IC50
Experimental: Recombinant HCV NS3 Protease/NS4A Cofactor Peptide Radiometric Assay.
The enzyme was stored at −80° C., thawed on ice and diluted just prior to use in the assay buffer containing the NS4A cofactor peptide.
The substrate used for the NS3 protease/NS4A cofactor peptide radiometric assay, DDIVPC-SMSYTW [SEQ. ID NO. 2], is cleaved between the cysteine and the serine residues by the enzyme. The sequence DDIVPC-SMSYTW [SEQ. ID NO. 2] corresponds to the NS5A/NS5B natural cleavage site in which the cysteine residue in P2 has been substituted for a proline. The peptide substrate DDIVPC-SMSYTW [SEQ. ID NO. […] ID NO. […] [SEQ. ID NO. 5] (molar ratio enzyme: cofactor 1:100) in the absence or presence of inhibitors. The separation of substrate from products is performed by adding avidin-coated agarose beads to the assay mixture followed by filtration. […] ID NO. 4] product found in the filtrate allows for the calculation of the percentage of substrate conversion and of the percentage of inhibition.
Tris and Tris-HCl (UltraPure) were obtained from Gibco-BRL. Glycerol (UltraPure), MES and BSA were purchased from Sigma. TCEP was obtained from Pierce, DMSO from Aldrich and NaOH from Anachemia.
Assay buffer: 50 mM Tris HCl, pH 7.5, 30% (w/v) glycerol, 1 mg/mL BSA, 1 mM TCEP (TCEP added just prior to use from a 1 M stock solution in water).
Substrate: […] [SEQ. ID NO.
ID NO. 3] (˜1 nM final concentration).
The assay was performed in a 96-well polypropylene plate from Costar. Each well contained:
20 μL substrate/tracer in assay buffer;
10 μL±inhibitor in 20% DMSO/assay buffer;
10 μL NS3 protease 1b/NS4 cofactor peptide (molar ratio 1:100).
Blank (no inhibitor and no enzyme) and control (no inhibitor) were also prepared on the same assay plate.
The enzymatic reaction was initiated by the addition of the enzyme/NS4A peptide solution and the assay mixture was incubated for 40 min at 23° C. under gentle agitation. Ten (10) μL of 0.5N NaOH were added and 10 μL 1 M MES, pH 5.8 were added to quench the enzymatic reaction.
Twenty (20) μL of avidin-coated agarose beads (purchased from Pierce) were added in a Millipore MADP N65 filtration plate. The quenched assay mixture was transferred to the filtration plate, and incubated for 60 min at 23° C. under gentle agitation.
The plates were filtered using a Millipore MultiScreen Vacuum Manifold Filtration apparatus, and 40 μL of the filtrate was transferred in an opaque 96-well plate containing 60 μL of scintillation fluid per well.
The % inhibition was calculated with the following equation:
100-[(countsinh-countsblank)/(countsctl-countsblank)×100]

[1] = Table 1, unmarked values: NS3 protease/NS4A cofactor peptide radiometric assay
[2] = Table 2, unmarked values: NS3 protease/NS4A cofactor peptide radiometric assay

T1 sequence (P26663 1027-1206, other chains not shown): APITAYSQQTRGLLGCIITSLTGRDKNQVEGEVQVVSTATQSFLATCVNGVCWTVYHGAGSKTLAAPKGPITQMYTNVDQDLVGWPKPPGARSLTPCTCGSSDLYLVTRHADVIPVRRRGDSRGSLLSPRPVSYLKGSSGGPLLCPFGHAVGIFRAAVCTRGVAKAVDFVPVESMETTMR

| Compound | IC50 [1] | IC50 [2] | other results |
| --- | --- | --- | --- |
| CC[C@H](C)[C@H](NC(=O)[C@@H](NC(=O)[C@H](CC(=O)O)NC(C)=O)C(C)(C)C)C(=O)N[C@H](C(=O)N1CCC[C@H]1C(=O)N[C@@H](CS)C(=O)O)C(C)C [compound 108] (Ac-D[Tle]IVPC-OH) | 31 µM |  |  |
| CCC[C@H](NC(=O)[C@@H]1C[C@@H](OCc2ccc3ccccc3c2)CN1C(=O)[C@@H](NC(=O)[C@@H](NC(=O)[C@@H](CCC(=O)O)NC(=O)[C@H](CC(=O)O)NC(C)=O)[C@@H](C)CC)C(C)C)C(=O)O [compound 213] (Ac-D[dE]IV[Hyp](X1)[Nva]-OH) |  | 0.036 µM |  |
| CC[C@H](C)[C@H](NC(=O)[C@@H](CCC(=O)O)NC(=O)[C@H](CC(=O)O)NC(C)=O)C(=O)N[C@H](C(=O)N1CCC[C@H]1C(=O)N[C@@H](CS)C(=O)O)C(C)C [compound 105] (Ac-D[dE]IVPC-OH) | 1.5 µM |  |  |
| CCC[C@H](NC(=O)[C@@H]1C[C@@H](OCc2ccccc2)CN1C(=O)[C@@H](NC(=O)[C@@H](NC(=O)[C@H](CC(=O)O)NC(=O)[C@H](CC(=O)O)NC(C)=O)[C@@H](C)CC)C(C)C)C(=O)O [compound 201] (Ac-DDIV[Hyp](Bn)[Nva]-OH) |  | 7.2 µM |  |
| C=CC[C@H](NC(=O)[C@@H]1CCCN1C(=O)[C@@H](NC(=O)[C@@H](NC(=O)[C@H](CC(=O)O)NC(=O)[C@H](CC(=O)O)NC(C)=O)[C@@H](C)CC)C(C)C)C(=O)O [compound 124] (Ac-DDIVP[AllylGly]-OH) | 210 µM |  |  |
| CC(=O)OCC(=O)N[C@H](C(=O)N[C@H](C(=O)N1C[C@H](OCc2cccc3ccccc23)C[C@H]1C(=O)NC1(C(=O)O)CC1)C1CCCCC1)C1CCCCC1 [compound 232] (X3-[Chg][Chg][Hyp](CH2(1-naphthyl))[Ac3c]-OH) |  | 1.4 µM |  |
| CC(=O)N[C@H](C(=O)N[C@H](C(=O)N1C[C@H](OCc2cccc3ccccc23)C[C@H]1C(=O)NC1(C(=O)O)CC1)C1CCCCC1)C1CCCCC1 [compound 231] (Ac-[Chg][Chg][Hyp](CH2(1-naphthyl))[Ac3c]-OH) |  | 2.6 µM |  |
| CC[C@H](NC(=O)[C@@H]1CCCN1C(=O)[C@@H](NC(=O)[C@@H](NC(=O)[C@H](CC(=O)O)NC(=O)[C@H](CC(=O)O)NC(C)=O)[C@@H](C)CC)C(C)C)C(=O)O [compound 122] (Ac-DDIVP[Abu]-OH) | 315 µM |  |  |
| CCC[C@H](NC(=O)[C@@H]1C[C@@H](OCc2cccc3ccccc23)CN1C(=O)[C@@H](NC(=O)[C@@H](NC(C)=O)C1CCCCC1)C(C)C)C(=O)O [compound 252] (Ac-[Chg]V[Hyp](CH2(1-naphthyl))[Nva]-OH) |  | 20 µM |  |
| CC[C@H](C)[C@H](NC(=O)[C@H](CCC(=O)O)NC(=O)[C@H](CC(=O)O)NC(C)=O)C(=O)N[C@H](C(=O)N1C[C@H](OCc2cccc(I)c2)C[C@H]1C(=O)NC1(C(=O)O)CC1)C(C)C [compound 233] (Ac-DEIV[Hyp](X6)[Ac3c]-OH) |  | 0.14 µM |  |
| CCC[C@H](NC(=O)[C@@H]1C[C@@H](OCc2ccc(C(C)(C)C)cc2)CN1C(=O)[C@@H](NC(=O)[C@@H](NC(=O)[C@H](CC(=O)O)NC(=O)[C@H](CC(=O)O)NC(C)=O)[C@@H](C)CC)C(C)C)C(=O)O [compound 209] (Ac-DDIV[Hyp](X5)[Nva]-OH) |  | 2.6 µM |  |
| CC(=O)N[C@H](C(=O)N[C@H](C(=O)N1C[C@H](OCc2ccccc2)C[C@H]1C(=O)N[C@@H](CS)C(=O)O)C(C)C)C1CCCCC1 [compound 261] (Ac-[Chg]V[Hyp](Bn)C-OH) |  | 28 µM |  |
| CC[C@H](C)[C@H](NC(=O)[C@H](CC(=O)O)NC(=O)[C@H](CC(=O)O)NC(C)=O)C(=O)N[C@H](C(=O)N1CCC[C@H]1C(=O)NC1(C(=O)O)CC1)C(C)C [compound 126] (Ac-DDIVP[Ac3c]-OH) | 45 µM |  |  |
| CC(=O)N[C@@H](CC(=O)O)C(=O)N[C@@H](CC(=O)O)C(=O)N[C@H](C(=O)N[C@H](C(=O)N1CCC[C@H]1C(=O)N[C@@H](CS)C(=O)O)C(C)C)C(C)(C)C [compound 111] (Ac-DD[Tle]VPC-OH) | 79 µM |  |  |
| CC[C@H](C)[C@H](NC(=O)[C@@H](CCC(=O)O)NC(=O)[C@H](CC(=O)O)NC(C)=O)C(=O)N[C@H](C(=O)N1C[C@H](OCc2ccccc2)C[C@H]1C(=O)N[C@@H](CS)C(=O)O)C(C)C [compound 260] (Ac-D[dE]IV[Hyp](Bn)C-OH) |  | 0.18 µM |  |
| CC(=O)N[C@H](C(=O)N[C@H](C(=O)N1C[C@H](Oc2ccc(I)cc2)C[C@H]1C(=O)NC1(C(=O)O)CC1)C(C)C)C1CCCCC1 [compound 249] |  | 9.7 µM |  |
| CC[C@H](C)[C@H](NC(=O)[C@H](CC(=O)O)NC(=O)[C@H](CC(=O)O)NC(C)=O)C(=O)N[C@H](C(=O)N1C[C@H](OCc2ccccc2)C[C@H]1C(=O)N[C@@H](CS)C(=O)O)C(C)C [compound 121] (Ac-DDIV[Hyp](Bn)C-OH) | 1.7 µM |  |  |
| CC(=O)N[C@@H](CC(=O)O)C(=O)N[C@H](CCC(=O)O)C(=O)N[C@H](C(=O)N[C@H](C(=O)N1C[C@H](OCc2cccc3ccccc23)C[C@H]1C(=O)NC1(C(=O)O)CC1)C(C)C)C1CCCCC1 [compound 215] (Ac-D[dE][Chg]V[Hyp](CH2(1-naphthyl))[Ac3c]-OH) |  | 0.014 µM |  |
| CC(=O)N[C@H](C(=O)N[C@H](C(=O)N1C[C@H](OCc2cc(Br)cc(Br)c2)C[C@H]1C(=O)NC1(C(=O)O)CC1)C(C)C)C1CCCCC1 [compound 272] (Ac-[Chg]V[Hyp](X4)[Ac3c]-OH) |  | 27 µM |  |
| Ac-DDIVPC [compound 101] | 46 µM |  |  |
| CC(=O)N[C@@H](CC(=O)O)C(=O)N[C@H](CCC(=O)O)C(=O)N[C@H](C(=O)N[C@@H](CCC(=O)O)C(=O)N[C@@H](CCC(=O)O)C(=O)NC1(C(=O)O)CC1)C1CCCCC1 [compound 132] (Ac-D[dE][Chg]EE[Ac3c]-OH) | 36 µM |  |  |
| CC[C@H](C)[C@H](NC(=O)[C@H](NC(=O)[C@H](CC(=O)O)NC(C)=O)C(C)C)C(=O)N[C@H](C(=O)N1CCC[C@H]1C(=O)N[C@@H](CS)C(=O)O)C(C)C [compound 274] (Ac-D[dV]IVPC-OH) |  | 7.6 µM |  |
| CC(=O)N[C@@H](CC(=O)O)C(=O)N[C@@H](CCC(=O)O)C(=O)N[C@H](C(=O)N[C@@H](CCC(=O)O)C(=O)N[C@@H](CCC(=O)O)C(=O)N[C@@H](CS)C(=O)O)C1CCCCC1 [compound 131] (Ac-DE[Chg]EEC-OH) | 24 µM |  |  |
| CC(=O)N[C@H](C(=O)N[C@H](C(=O)N1C[C@H](Oc2cccc(Br)c2)C[C@H]1C(=O)NC1(C(=O)O)CC1)C(C)C)C1CCCCC1 [compound 240] |  | 42 µM |  |
| CCC[C@H](NC(=O)[C@@H]1C[C@@H](OCc2cccc3ccccc23)CN1C(=O)[C@@H](NC(=O)[C@@H](NC(=O)CCC(=O)O)[C@@H](C)CC)C(C)C)C(=O)O [compound 221] (Suc-IV[Hyp](CH2(1-naphthyl))[Nva]-OH) |  | 22 µM |  |
| Ac-DDIVIC [compound 119] | 90 µM |  |  |
| CC(C)(C)OC(=O)N[C@H](C(=O)N[C@H](C(=O)N1C[C@H](OCc2cccc3ccccc23)C[C@H]1C(=O)NC1(C(=O)O)CC1)C1CCCCC1)C1CCCCC1 [compound 235] (Boc-[Chg][Chg][Hyp](CH2(1-naphthyl))[Ac3c]-OH) |  | 12 µM |  |
| CC(=O)N[C@H](C(=O)N[C@H](C(=O)N1C[C@H](OCc2cccc(Br)c2)C[C@H]1C(=O)NC1(C(=O)O)CC1)C(C)C)C1CCCCC1 [compound 268] (Ac-[Chg]V[Hyp](X2)[Ac3c]-OH) |  | 24 µM |  |
| CC[C@H]1C[C@@]1(NC(=O)[C@@H]1C[C@@H](OCc2cccc3ccccc23)CN1C(=O)[C@@H](NC(=O)[C@@H](NC(C)=O)C1CCCCC1)C(C)C)C(=O)O [compound 514] |  |  | IC50 (text b180, values of Table 5, 1R,2R versus 1S,2S isomer at P1): 27.5 µM |
